ChEMBL document CHEMBL3885881, “DrugMatrix”

Species: Rattus norvegicus
Assay: DrugMatrix - Regimen: Daily Repeat
Format: toxicity, organism-based, Sprague-Dawley
Design: regimen Daily Repeat, gender Male, age 6-8 weeks
Conditions: in vivo, po, route oral GAVAGE, vehicle .5 % CMC; for ABSOLUTE BASOPHIL / ABSOLUTE EOSINOPHIL / ABSOLUTE LYMPHOCYTE / ABSOLUTE MONOCYTE / ABSOLUTE SEGMENTED NEUTROPHIL / BASOPHIL / EOSINOPHIL / ERYTHROCYTE COUNT / HEMATOCRIT / HEMOGLOBIN / LEUKOCYTE COUNT / LYMPHOCYTE / MEAN CORPUSCULAR HEMOGLOBIN / MEAN CORPUSCULAR HEMOGLOBIN CONCENTRATION / MONOCYTE / NEUTROPHIL / NUCLEATED RED BLOOD CELLS / PLATELET COUNT: tissue Blood; for ALANINE AMINOTRANSFERASE / ALBUMIN / ALKALINE PHOSPHATASE / ASPARTATE AMINOTRANSFERASE / BLOOD UREA NITROGEN / CARBON DIOXIDE / CHLORIDE / CHOLESTEROL / CREATINE PHOSPHOKINASE / CREATININE / GLUCOSE / LACTATE DEHYDROGENASE / LIPASE / PHOSPHORUS / POTASSIUM / SODIUM / TOTAL BILIRUBIN / TOTAL PROTEIN / URIC ACID: tissue Plasma
[1] = 0 mg/kg, 72 h, dose level Control, time 3 day
[2] = 0 mg/kg, 120 h, dose level Control, time 5 day
[3] = 10 mg/kg, 72 h, dose level Low, time 3 day

## O=C1C(CC[S+]([O-])c2ccccc2)C(=O)N(c2ccccc2)N1c1ccccc1 (stereo not given) [SULFINPYRAZONE]
[1]
  ABSOLUTE BASOPHIL: 0 CELLS/uL
  ABSOLUTE EOSINOPHIL: 171.33 CELLS/uL
  ABSOLUTE LYMPHOCYTE: 13776.5 CELLS/uL
  ABSOLUTE MONOCYTE: 180.83 CELLS/uL
  ABSOLUTE SEGMENTED NEUTROPHIL: 1121.33 CELLS/uL
  BASOPHIL: 0%
  EOSINOPHIL: 1%
  ERYTHROCYTE COUNT: 5.56 x10E6/uL
  HEMATOCRIT: 34.75%
  HEMOGLOBIN: 13.68 G/DL
  LEUKOCYTE COUNT: 15.25 x10E3/uL
  LYMPHOCYTE: 90.17%
  MEAN CORPUSCULAR HEMOGLOBIN: 24.6 pg
  MEAN CORPUSCULAR HEMOGLOBIN CONCENTRATION: 39.4 G/DL
  MONOCYTE: 1.17%
  NEUTROPHIL: 7.67%
  NUCLEATED RED BLOOD CELLS: 0 /100WBC
  PLATELET COUNT: 1342 x10E3/uL
  ALANINE AMINOTRANSFERASE: 49.67 u/L
  ALBUMIN: 4.15 G/DL
  ALKALINE PHOSPHATASE: 346.83 u/L
  ASPARTATE AMINOTRANSFERASE: 108.17 u/L
  BLOOD UREA NITROGEN: 17.33 mg/dL
  CARBON DIOXIDE: 25 mmol/L
  CHLORIDE: 100.83 MEQ/L
  CHOLESTEROL: 66.83 mg/dL
  CREATINE PHOSPHOKINASE: 788 u/L
  CREATININE: 0.18 mg/dL
  GLUCOSE: 151.67 mg/dL
  LACTATE DEHYDROGENASE: 982.5 u/L
  LIPASE: 10.33 u/L
  PHOSPHORUS: 11.23 mg/dL
  POTASSIUM: 6.37 MEQ/L
  SODIUM: 141.02 MEQ/L
  TOTAL BILIRUBIN: 0.18 mg/dL
  TOTAL PROTEIN: 5.9 G/DL
  URIC ACID: 1.8 mg/dL
[2]
  ABSOLUTE BASOPHIL: 0 CELLS/uL
  ABSOLUTE EOSINOPHIL: 69 CELLS/uL
  ABSOLUTE LYMPHOCYTE: 13632.83 CELLS/uL
  ABSOLUTE MONOCYTE: 139.83 CELLS/uL
  ABSOLUTE SEGMENTED NEUTROPHIL: 1225 CELLS/uL
  BASOPHIL: 0%
  EOSINOPHIL: 0.33%
  ERYTHROCYTE COUNT: 5.52 x10E6/uL
  HEMATOCRIT: 33.98%
  HEMOGLOBIN: 13.22 G/DL
  LEUKOCYTE COUNT: 15.07 x10E3/uL
  LYMPHOCYTE: 90.83%
  MEAN CORPUSCULAR HEMOGLOBIN: 23.95 pg
  MEAN CORPUSCULAR HEMOGLOBIN CONCENTRATION: 38.9 G/DL
  MONOCYTE: 0.83%
  NEUTROPHIL: 8%
  NUCLEATED RED BLOOD CELLS: 0 /100WBC
  PLATELET COUNT: 1196 x10E3/uL
  ALANINE AMINOTRANSFERASE: 49.17 u/L
  ALBUMIN: 4.2 G/DL
  ALKALINE PHOSPHATASE: 352.33 u/L
  ASPARTATE AMINOTRANSFERASE: 89.67 u/L
  BLOOD UREA NITROGEN: 18 mg/dL
  CARBON DIOXIDE: 27.67 mmol/L
  CHLORIDE: 101 MEQ/L
  CHOLESTEROL: 72.83 mg/dL
  CREATINE PHOSPHOKINASE: 417.5 u/L
  CREATININE: 0.18 mg/dL
  GLUCOSE: 150.5 mg/dL
  LACTATE DEHYDROGENASE: 517.33 u/L
  LIPASE: 9 u/L
  PHOSPHORUS: 11.87 mg/dL
  POTASSIUM: 6.57 MEQ/L
  SODIUM: 143.62 MEQ/L
  TOTAL BILIRUBIN: 0.2 mg/dL
  TOTAL PROTEIN: 6.08 G/DL
  URIC ACID: 1.45 mg/dL
[3]
  ABSOLUTE BASOPHIL: 0 CELLS/uL
  ABSOLUTE EOSINOPHIL: 153.67 CELLS/uL
  ABSOLUTE LYMPHOCYTE: 13327.33 CELLS/uL
  ABSOLUTE MONOCYTE: 157.33 CELLS/uL
  ABSOLUTE SEGMENTED NEUTROPHIL: 995 CELLS/uL
  BASOPHIL: 0%
  EOSINOPHIL: 1%
  ERYTHROCYTE COUNT: 5.31 x10E6/uL
  HEMATOCRIT: 34.03%
  HEMOGLOBIN: 13.67 G/DL
  LEUKOCYTE COUNT: 14.63 x10E3/uL
  LYMPHOCYTE: 91%
  MEAN CORPUSCULAR HEMOGLOBIN: 25.73 pg
  MEAN CORPUSCULAR HEMOGLOBIN CONCENTRATION: 40.17 G/DL
  MONOCYTE: 1%
  NEUTROPHIL: 7%
  NUCLEATED RED BLOOD CELLS: 0 /100WBC
  PLATELET COUNT: 1352.33 x10E3/uL
  ALANINE AMINOTRANSFERASE: 52.33 u/L
  ALBUMIN: 4.23 G/DL
  ALKALINE PHOSPHATASE: 353.33 u/L
  ASPARTATE AMINOTRANSFERASE: 105.67 u/L
  BLOOD UREA NITROGEN: 15.33 mg/dL
  CARBON DIOXIDE: 25.67 mmol/L
  CHLORIDE: 100.33 MEQ/L
  CHOLESTEROL: 80.33 mg/dL
  CREATINE PHOSPHOKINASE: 490.67 u/L
  CREATININE: 0.21 mg/dL
  GLUCOSE: 150.33 mg/dL
  LACTATE DEHYDROGENASE: 722 u/L
  LIPASE: 10.33 u/L
  PHOSPHORUS: 12.1 mg/dL
  POTASSIUM: 6.22 MEQ/L
  SODIUM: 143.2 MEQ/L
  TOTAL BILIRUBIN: 0.2 mg/dL
  TOTAL PROTEIN: 6.03 G/DL
